Results on 4 molecules are retold here after ChEMBL document CHEMBL1154196, “Synthesis and evaluation of (S,S)-N,N'-bis-[3-(2,2',6,6'-tetramethylbenzhydryloxy)-2-hydroxy-propyl]-ethylenediamine (S2824) analogs with anti-tuberculosis activity” (2009).

Structures are written as SMILES. Converted amounts (≈) assume the structure as drawn.

For test [1], the system named is Mycobacterium tuberculosis. In words: Antitubercular activity against isoniazid, rifampin-resistant Mycobacterium tuberculosis by radiometric BACTEC460 method. Format: functional.
For test [2], the system named is Mycobacterium tuberculosis. In words: Antitubercular activity against isoniazid, rifampin, ethambutol, streptomycin-resistant Mycobacterium tuberculosis by radiometric BACTEC460 method. Format: functional.

On to `Cc1ccc(C(OC[C@H](O)CN2CCN(C[C@@H](O)COC(c3ccc(C)cc3)c3ccc(C)cc3)CC2)c2ccc(C)cc2)cc1`, for which the minimal inhibitory concentration (MIC) in test [1] and in test [2] was 6.25 µg/mL (≈ 10 µM) throughout.

For the molecule `Cc1ccc(C(OC[C@@H](O)CN2CCCN(C[C@H](O)COC(c3ccc(C)cc3)c3ccc(C)cc3)CC2)c2ccc(C)cc2)cc1`, the minimal inhibitory concentration (MIC) – broadly, the least concentration at which growth counts as inhibited – worked out at 1.56 µg/mL (≈ 2.45 µM) in test [1] and 0.78 µg/mL (≈ 1.22 µM) in test [2].

Take `Cc1ccc(C(OC[C@H](O)CN2CCCN(C[C@@H](O)COC(c3ccc(C)cc3)c3ccc(C)cc3)CC2)c2ccc(C)cc2)cc1`: the MIC in test [1] and in test [2] was 1.56 µg/mL (≈ 2.45 µM) in each case.

For `CC[C@@H](CO)NCCN[C@@H](CC)CO` [ETHAMBUTOL], the minimum inhibitory concentration (MIC) in test [1] was 3.13 µg/mL (≈ 15.3 µM); in test [2] it was above 12.5 µg/mL.
